The subject of one assay is male rats of SD line. Kind of assay: High cholesterol feed: blood viscosity, serum total cholesterol, triglyceride, GOT. The note with it: 100 mg/kg/day, p.o., 4 days. Type of assay: in vivo. As for the experimental part:
In this experiment, 5-week-old male rats of SD line (5 individuals per one group) were used after rearing them for 1 week using normal feed, and each compound of the present invention (100 mg/kg) was administered orally once a day for 4 days. Simultaneously with the commencement of the administration, the normal feed was replaced by a high cholesterol feed. After completion of the administration, they were subjected to fasting treatment for 24 hours. Thereafter, each rat was subjected to ventrotomy under anesthesia with Nembutal® (Dainabot Co., Ltd.; 50 mg/kg, i.p.) to collect blood from abdominal aorta, and the collected blood sample was checked for its blood viscosity using a viscometer (Biolyzer, Tokyo Keiki Co., Ltd.). At the same time, total cholesterol (Wako Pure Chemical Industries, Ltd.; Cholesterol E-test wako), triglyceride (Wako Pure Chemical Industries, Ltd.; Triglyceride G-test wako) and GOT (Wako Pure Chemical Industries, Ltd.; GOT-UV test-wako) in serum samples were measured.

In a further assay the test system is male rats of SHR line. Description: Blood pressure in SHR rats. Type of assay: in vivo. The note with it: 10 mg/kg, p.o., 2 weeks. As for the experimental part: In this experiment, 12-week-old male rats of SHR line (5 to 6 individuals per one group) were used after rearing them for 1 week with normal feed. Oral administration of each test drug has been carried out for 2 weeks and then blood pressure (mmHg) was measured using a small animal hemomanometer (UR-1000).

The subject of assay [1] is male mice of ddY line. Description: Survival time under hypoxia (aeration with 96% nitrogen and 4% oxygen). Type of assay: in vivo. The note with it: 50 mg/kg, i.p., 60 minutes before aeration with 96% nitrogen and 4% oxygen; time to respiratory arrest. As for the experimental part:
In this experiment, 5 to 6-week-old male mice of ddY line (10 individuals per one group) were used after fasting treatment for 24 hours.
Each compound obtained in the present invention was administered intraperitoneally. After 60 minutes of the administration, each mouse was transferred separately into a transparent vessel (capacity, 1,000 ml) equipped with an air exit, and the vessel was aerated with a mixed gas consisting of 96% nitrogen and 4% oxygen at an aeration rate of 5 ℓ/min.
All tested mice died within 180 seconds after the commencement of the gas mixture aeration. Terminal respiration was observed several times prior to the respiratory arrest. Survival time of the control group was roughly in the range of from 96 to 111 seconds.

Another assay concerns erythrocytes. Kind of assay: Erythrocyte deformability (filtration through 5 µm filter) after oral administration. Type of assay: in vivo, male rats of Wistar line. The note with it: 30 mg/kg, p.o.; blood collected 90 minutes after administration; number of filtered erythrocytes. As for the experimental part: In this experiment, 9-week-old male rats of Wistar line (5 to 6 individuals per one group) were used after rearing them for 1 week with normal feed. After 24 hours of fasting, each test drug was administered orally and, 90 minutes thereafter, blood sample was collected from lower abdominal vena cava of each rat under anesthesia with Nembutal® (1 ml/kg, i.p.). Blood samples obtained in this way were checked for their blood clotting time and erythrocyte deformability.
Measuring procedures are as follows.
Erythrocyte deformability ... The collected blood is extruded from a syringe with a constant flow of He in a holder equipped with a filter (5 µm). Weight of blood and the number of erythrocytes filtered during a fixed time are measured and the deformability is expressed based on the number of filtered erythrocytes. The results of these measurements are shown respectively in Tables 11 and 12.

Assay [2] has as its system rats of diabetes mellitus. Kind of assay: Blood sugar level in streptozotocin-induced diabetes mellitus. Type of assay: in vivo, male rats of Wistar line. The note with it: 50 mg/kg. The procedure: In this experiment, 8-week-old male rats of Wistar line (5 individuals per one group) were used after rearing them for 1 week with normal feed. Streptozotocin (40 mg/kg) was administered by tail intravenous injection to obtain rats of diabetes mellitus. Beginning after 1 week of the streptozotocin administration, oral administration of each test drug has been carried out for 1 week, followed by 24 hours of fasting. Thereafter, blood sample was collected from lower abdominal vena cava under anesthesia with Nembutal® (1 ml/kg, i.p.). Serum samples were prepared from the thus collected blood samples and checked for their blood sugar levels, with the results shown in Table 9.

The test system of a further assay is red blood cells. Description: Inhibition of thermal hemolysis of red blood cells. Type of assay: cell-based, donryu rats. The note with it: 53°C for 20 minutes; for inhibition at 10 µM / inhibition at 50 µM / inhibition at 100 µM / inhibition at 200 µM / inhibition at 500 µM: Rattus norvegicus, Erythrocyte, 20 min, read-out: Hemolysis Inhibition Ratio (%) against Control. The procedure:
Blood was collected from donryu rats of 150 to 200 g in body weight and centrifuged at 1,500 rpm for 5 minutes to obtain red blood cells. The red blood cells thus collected were diluted with 0.15 M phosphate buffer (pH 7.4) to prepare a 5% red blood cell suspension. A 3.8 ml portion of the thus prepared suspension was mixed with 0.2 ml solution of each compound of the present invention which has been adjusted to each level of the concentrations as shown in the following table, and the resulting mixture was shaken thoroughly and incubated at 53°C for 20 minutes. Thereafter, the thus incubated mixture was cooled rapidly with tap water and centrifuged at 3,000 rpm for 15 minutes, and absorbance at 540 nm of the resulting supernatant fluid was measured using a spectrophotometer (Hitachi: Type 200-20). Inhibition rate (%) of red blood cell hemolysis at each concentration of the compound was calculated based on the absorbance, with the results shown in Table 8.

Assay [3] concerns male mice of ddY line. Type of assay: in vivo. The note with it: 50 mg/kg, i.p., 60 minutes before KCN (3.0 mg/kg) tail intravenous injection; for Survival Time ±S.E.: time to respiratory arrest.
In the next assay the test system is male SD rats. Kind of assay: Thrombus formation in abdominal vena cava. The note with it: 30 mg/kg, p.o.; dry weight of thrombus. Type of assay: in vivo. The procedure: Each of male SD rats of 130 to 210 g in body weight was anesthetized with Nembutal® (50 mg/kg, i.p.) and subjected to median incision ventrotomy to release about a 2 cm portion of abdominal vena cava below the renal vein. Blood flow of the thus released vena cava was temporarily stopped for 5 minutes with 8 hemostatic clips. After recirculating blood for 5 minutes by removing the hemostatic clips, […] was ligated at a position just below the renal vein and the median-incised part was sutured. Two hours after the ligature, the thus treated rat was again subjected to ventrotomy to excise abdominal vena cava. The thus excised blood vessel was cut open on a filter paper which had been moistened with physiological saline, in order to take out thrombus. The thrombus thus obtained was washed with physiological saline to remove adhered blood and the like substances and then dried at 80°C for 12 hours or longer to measure its dry weight. In this instance, each drug to be tested was orally administered 90 minutes before the clipping to examine its effect by single administration on the formation of thrombus. Separately from this, each test drug was administered to 6-week-old male SD rat continuously for 7 days, thrombus was prepared in the eighth day in the same manner as described above and dry weight of the thrombus was measured, in order to examine effect of the continuous 7 day administration on the thrombus formation.

Setting [4] is: i.o., administered for 1 week beginning 1 week after streptozotocin (40 mg/kg), serum.

Where two headings read alike, the source gives them in different places.

Turning to `CC(CCC1OCC1CO)C1CCC2C3C(O)CC4CC(O)CCC4(C)C3CC(O)C12C` [Example 3, (24R)-(25S)-(+)-24,26-epoxy-5β-cholestane-3α,7α,12α,27-tetrol], the “GOT ±S.E.” value in the assay with male rats of SD line is given as 140 ± 10 IU/ℓ. Also, the “Total Cholesterol ±S.E.” value with male rats of SD line stood at 445 ± 65 mg/dL. In the assay on male rats of SD line, the “Triglyceride ±S.E.” value is 90 ± 39 mg/dL. Besides, the “Blood Pressure ±S.E. Average” value in the assay on male rats of SHR line was 150 ± 3.7 mmHg. The “Blood Pressure ±S.E. Maximum” value in the assay on male rats of SHR line was 200 ± 7.7 mmHg. Moreover, the results for the “Survival Time ±S.E.” value in the assay with male mice of ddY line [1] and in the assay on male mice of ddY line [3] were 113.2 ± 5.28 s and 107.3 ± 8.6 s, respectively. For the same molecule, the “Erythrocyte Deformation: Erythrocyte counts ±S.E.” value (“Erythrocyte Deformation” below) in the assay on erythrocytes is 3.55 ± 0.66 × 10⁷. For the same molecule, in assay [2] (168 h), the “Blood Sugar Level ± S.E.” value was determined as 143 ± 6.9 mg/dL. The “Hemolysis Inhibition Ratio (%) against Control” value with red blood cells (0.01 mM) turned out to be 33%; with red blood cells (0.05 mM) it was 30%; in the assay with red blood cells (0.1 mM), 24%; with red blood cells (0.2 mM) it was 51%; in the assay on red blood cells (0.5 mM) it was 70%. Moreover, in the assay on male mice of ddY line [3], the “Lethality (%)” value was found to be 80%. The “Antithrombotic Effect: Thrombus weight ±S.E.” value (“Antithrombotic Effect” below) in the assay on male SD rats was 13.5 ± 1.22 mg.

Take `C[C@H](CC[C@H]1OC[C@H]1CO)[C@H]1CC[C@H]2[C@@H]3[C@H](O)C[C@@H]4C[C@H](O)CC[C@]4(C)[C@H]3C[C@H](O)[C@]12C` [Example 4, (24R)-(25R)-(+)-24,26-epoxy-5β-cholestane-3α,7α,12α,27-tetrol]: in the assay on male rats of SD line, the “GOT ±S.E.” value came out at 138 ± 9 IU/ℓ, the “Total Cholesterol ±S.E.” value stood at 428 ± 49 mg/dL and the “Triglyceride ±S.E.” value worked out at 92 ± 45 mg/dL. In the assay with male rats of SHR line, the “Blood Pressure ±S.E. Average” value was 153 ± 2.8 mmHg and the “Blood Pressure ±S.E. Maximum” value worked out at 205 ± 7.8 mmHg. For the same molecule, the “Survival Time ±S.E.” value with male mice of ddY line [1] worked out at 115.5 ± 3.88 s. In addition, the “Erythrocyte Deformation” value in the assay with erythrocytes was 3.97 ± 0.39 × 10⁷. Further, the “Blood Sugar Level ± S.E.” value in assay [2] (setting [4]) is 181 ± 8.9 mg/dL. In addition, in the assay on red blood cells (0.01 mM), the inhibition at 10 µM is 27%. Also, the inhibition at 50 µM with red blood cells (0.05 mM) is 21%. Also, the inhibition at 100 µM with red blood cells (0.1 mM) was found to be 31%. Moreover, in the assay on red blood cells (0.2 mM), the inhibition at 200 µM turned out to be 44%. Further, in the assay with red blood cells (0.5 mM), the inhibition at 500 µM was found to be 48%. In the assay with male mice of ddY line [3], the “Lethality (%)” value amounted to 80% and the “Survival Time ±S.E.” value was determined as 98.1 ± 13.1 s. Moreover, the “Antithrombotic Effect” value in the assay on male SD rats was 11.2 ± 3.81 mg.

As for `C[C@H](CC[C@@H](O)C1COC1)[C@H]1CC[C@H]2[C@@H]3[C@H](O)C[C@@H]4C[C@H](O)CC[C@]4(C)[C@H]3C[C@H](O)[C@]12C` [Example 5, (24R)-(+)-26,27-epoxy-5β-cholestane-3α,7α,12α,24-tetrol], in the assay with male rats of SD line, the “GOT ±S.E.” value is 141 ± 13 IU/ℓ, the “Total Cholesterol ±S.E.” value is 405 ± 99 mg/dL and the “Triglyceride ±S.E.” value turned out to be 91 ± 33 mg/dL. In the assay on male rats of SHR line, the “Blood Pressure ±S.E. Average” value came out at 148 ± 3.5 mmHg and the “Blood Pressure ±S.E. Maximum” value stood at 181 ± 3.5 mmHg. The “Survival Time ±S.E.” value in the assay with male mice of ddY line [1] stood at 110.0 ± 5.10 s. Moreover, in the assay on erythrocytes, the “Erythrocyte Deformation” value is reported as 4.10 ± 0.55 × 10⁷. Besides, in assay [2] (setting [4]), the “Blood Sugar Level ± S.E.” value worked out at 122 ± 7.8 mg/dL. Besides, the inhibition at 10 µM with red blood cells (0.01 mM) amounted to 23%. Also, the inhibition at 50 µM with red blood cells (0.05 mM) was found to be 19%. In the assay on red blood cells (0.1 mM), the inhibition at 100 µM turned out to be 30%. The inhibition at 200 µM with red blood cells (0.2 mM) was found to be 41%. Moreover, in the assay with red blood cells (0.5 mM), the inhibition at 500 µM was determined as 61%. Besides, in the assay with male mice of ddY line [3], the “Lethality (%)” value was determined as 80% and the “Survival Time ±S.E.” value was determined as 99.5 ± 7.21 s. In addition, in the assay on male SD rats, the “Antithrombotic Effect” value turned out to be 11.2 ± 3.12 mg.

For `C[C@H](CCCC(CO)CO)[C@H]1CC[C@H]2[C@@H]3[C@H](O)C[C@@H]4C[C@H](O)CC[C@]4(C)[C@H]3C[C@H](O)[C@]12C` [Example 6, 3α,7α,12α,26,27-pentahydroxy-5β-cholestane], in the assay with male rats of SD line, the “GOT ±S.E.” value was determined as 143 ± 8 IU/ℓ, the “Total Cholesterol ±S.E.” value amounted to 391 ± 70 mg/dL and the “Triglyceride ±S.E.” value came to 99 ± 41 mg/dL. In the assay with male rats of SHR line, the “Blood Pressure ±S.E. Average” value worked out at 131 ± 3.7 mmHg and the “Blood Pressure ±S.E. Maximum” value is 178 ± 3.3 mmHg. The “Survival Time ±S.E.” value in the assay with male mice of ddY line [1] was determined as 127.5 ± 9.26 s. Also, the “Erythrocyte Deformation” value with erythrocytes stood at 3.81 ± 0.44 × 10⁷. For the same molecule, the “Blood Sugar Level ± S.E.” value in assay [2] (setting [4]) was 138 ± 6.8 mg/dL. Moreover, the inhibition at 10 µM with red blood cells (0.01 mM) was found to be 33%. In addition, in the assay with red blood cells (0.05 mM), the inhibition at 50 µM came to 25%. Moreover, the inhibition at 100 µM with red blood cells (0.1 mM) was found to be 20%. Besides, the inhibition at 200 µM with red blood cells (0.2 mM) stood at 41%. In addition, the inhibition at 500 µM in the assay on red blood cells (0.5 mM) was 62%. In the assay on male mice of ddY line [3], the “Lethality (%)” value is 80% and the “Survival Time ±S.E.” value was 98.7 ± 8.81 s. In addition, the “Antithrombotic Effect” value in the assay with male SD rats was determined as 13.5 ± 2.11 mg.

Source of the values: patent EP0489933A1, “BILE ALCOHOL AND DRUG CONTAINING THE SAME AS ACTIVE INGREDIENT” (TSUMURA CO., LTD., priority 1990, dated 1992).
